{"source": "patent US20070166710A1", "about": "“Methods for inhibiting adipogenesis and for treating type 2 diabetes” (priority 2003, published 2007)", "test_system": "Foxa-2", "assay": "Immunoblot of phospho-TI56 Foxa-2 in livers after intraportal insulin", "assay_type": "in vivo, mice", "description": "FIG. 15a is an immunoblot of Foxa-2 and Foxo-1 in liver nuclear extracts of fed (n=3) and starved (n=3) mice. Anti-TATA binding protein (Tbp) antibodies were used as a loading control. FIGS. 15b and 15c are immunoblots of Foxa-2 and Foxo-1 in nuclear extracts of livers from mice perfused with different concentrations of insulin. FIG. 15d is a Western blot of Foxa-2 immunoprecipitated with anti-Foxa-2 antibodies from whole cell extracts of livers obtained from fasted mice 30 minutes after injection of 10 ng insulin or PBS in the portal vein. Samples (n=3 for each group) were analyzed by immunoblot analysis with an antibody directed against phospho-TI56 Foxa-2 (top panel) or with an antibody directed against total Foxa-2 protein (bottom panel). […]\nThe role of Foxa-2 in the regulation of liver gene expression by nutritional status was examined by determining the intracellular localization of Foxa-2 in fasted and fed mice by Western blotting of Foxa-2 in liver nuclear extracts and by immunohistochemistry. […] Strong Foxa-2 immunostaining was detected in hepatocyte nuclei of control (PBS) mice. […] Foxa-2 protein levels were measured in liver nuclei of C57/B6 mice that were perfused with a buffer containing a range of insulin concentrations that included fasting and postprandial insulin levels (0.2 and 4.0 ng/ml, respectively). […] Foxa-2 levels were determined by immunoblotting. […]", "data": [{"substance": "insulin: Insulin was from Sigma; hormone used as stimulus", "values": [{"measurement": "phosphorylated Foxa-2 detected by anti-phospho TI56 peptide antibody", "setting": "intraportal injection of insulin vs PBS", "value": "recognized phosphorylated Foxa-2"}, {"measurement": "Foxa-2 protein levels (anti-Foxa-2 antibodies)", "setting": "treated vs untreated livers", "value": "the same"}]}]}
